Source: patent US20200121684A1, “MODULATORS OF BTK PROTEOLYSIS AND METHODS OF USE” (Yale University, priority 2018, published 2020)
Where a name gives a salt, the structure may show the parent alone.

Experiments:
HER3 = target: T1, HER3 (Homo sapiens, UniProt P21860); experiment: HER3 (ERBB3) degradation, immunoblot; type: cell-based; conditions: Table 5
T1 construct: endogenous in cells

BTK = target: T2, BTK (Homo sapiens, UniProt Q06187); experiment: BTK degradation in NAMALWA cells, immunoblot; type: cell-based; conditions: NAMALWA cells
T2 construct: host or cells: NAMALWA

C481S BTK = C481S BTK (Homo sapiens, UniProt Q06187, C481S); experiment: In vitro kinase inhibition, recombinant BTK, 10-point dose response, 10 μM ATP
Sequence of C481S BTK (Q06187 whole entry C481S): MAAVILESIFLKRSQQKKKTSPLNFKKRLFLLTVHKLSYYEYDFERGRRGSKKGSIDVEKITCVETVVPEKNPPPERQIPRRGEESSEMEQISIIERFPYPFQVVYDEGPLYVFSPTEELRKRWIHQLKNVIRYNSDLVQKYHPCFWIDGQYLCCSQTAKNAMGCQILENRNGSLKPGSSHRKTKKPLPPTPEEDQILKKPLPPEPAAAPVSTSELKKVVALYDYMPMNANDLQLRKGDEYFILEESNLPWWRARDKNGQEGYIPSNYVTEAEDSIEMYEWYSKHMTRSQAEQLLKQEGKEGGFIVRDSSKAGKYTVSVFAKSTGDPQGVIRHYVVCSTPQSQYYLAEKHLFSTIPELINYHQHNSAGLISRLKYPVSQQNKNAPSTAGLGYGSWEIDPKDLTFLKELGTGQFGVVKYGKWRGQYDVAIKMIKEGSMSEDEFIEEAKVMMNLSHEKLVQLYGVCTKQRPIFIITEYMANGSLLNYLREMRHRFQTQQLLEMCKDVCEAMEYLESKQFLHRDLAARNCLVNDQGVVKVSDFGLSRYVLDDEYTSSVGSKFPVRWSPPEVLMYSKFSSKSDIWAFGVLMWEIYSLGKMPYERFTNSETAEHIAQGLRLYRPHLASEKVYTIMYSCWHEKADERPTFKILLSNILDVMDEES

T1 sequence (P21860 20-1342): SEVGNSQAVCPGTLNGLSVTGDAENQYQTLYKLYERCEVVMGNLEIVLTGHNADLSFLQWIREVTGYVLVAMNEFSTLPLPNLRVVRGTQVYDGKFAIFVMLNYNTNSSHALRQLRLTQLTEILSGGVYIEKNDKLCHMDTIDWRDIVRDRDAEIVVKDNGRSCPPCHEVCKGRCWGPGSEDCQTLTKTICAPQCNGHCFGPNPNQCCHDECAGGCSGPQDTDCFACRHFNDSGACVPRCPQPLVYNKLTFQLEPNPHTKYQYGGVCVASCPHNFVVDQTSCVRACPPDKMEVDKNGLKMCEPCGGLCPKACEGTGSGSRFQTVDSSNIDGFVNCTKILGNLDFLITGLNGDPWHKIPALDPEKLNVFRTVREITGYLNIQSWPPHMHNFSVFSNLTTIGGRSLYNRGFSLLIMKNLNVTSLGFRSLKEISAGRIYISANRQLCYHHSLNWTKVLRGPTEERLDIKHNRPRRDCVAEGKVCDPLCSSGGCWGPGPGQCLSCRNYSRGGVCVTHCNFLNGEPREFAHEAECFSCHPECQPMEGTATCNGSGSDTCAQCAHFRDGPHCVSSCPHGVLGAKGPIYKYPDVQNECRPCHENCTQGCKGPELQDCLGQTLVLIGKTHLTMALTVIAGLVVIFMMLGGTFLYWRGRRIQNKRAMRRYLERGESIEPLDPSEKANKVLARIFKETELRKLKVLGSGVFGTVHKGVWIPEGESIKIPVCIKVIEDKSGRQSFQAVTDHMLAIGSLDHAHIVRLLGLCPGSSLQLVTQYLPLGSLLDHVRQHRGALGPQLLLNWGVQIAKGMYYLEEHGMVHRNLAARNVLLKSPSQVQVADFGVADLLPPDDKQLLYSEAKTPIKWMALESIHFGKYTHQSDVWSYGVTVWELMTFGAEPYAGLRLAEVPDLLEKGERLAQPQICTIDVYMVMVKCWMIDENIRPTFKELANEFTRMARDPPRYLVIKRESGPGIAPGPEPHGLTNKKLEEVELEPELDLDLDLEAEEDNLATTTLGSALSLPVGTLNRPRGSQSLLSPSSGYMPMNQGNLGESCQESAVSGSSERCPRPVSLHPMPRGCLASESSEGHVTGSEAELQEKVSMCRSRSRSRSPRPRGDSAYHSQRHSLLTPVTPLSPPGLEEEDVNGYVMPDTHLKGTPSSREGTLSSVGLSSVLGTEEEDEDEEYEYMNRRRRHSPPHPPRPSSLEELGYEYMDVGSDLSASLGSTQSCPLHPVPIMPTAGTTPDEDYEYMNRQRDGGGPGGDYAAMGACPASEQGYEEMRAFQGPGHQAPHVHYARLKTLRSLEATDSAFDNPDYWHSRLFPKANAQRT
T2 sequence (Q06187 whole entry): as the sequence (Q06187 whole entry C481S) above, with S481C counted along it

Row | Molecule | HER3 Degradation (HER3) | DC50 (BTK; Table 5) | inhibition potency against C481S mutant BTK relative to wild-type (C481S BTK) | BTK degradation at 1.0 μM (BTK)
1 | (2S,4R)-1-((S)-25-(4-(4-amino-3-(4-phenoxyphenyl)-1H-pyrazolo[3,4-d]pyrimidin-1-yl)piperidin-1-yl)-2,2-dimethyl-5-oxo-7,10,13,16,19-pentaoxa-4-azapentacosanecarbonyl)-4-hydroxy-N-(4-(4-methylthiazol-5-yl)benzyl)pyrrolidine-2-carboxamide [Compound 118] | No | 231 nM |  | 
2 | Nc1ncnc2c1c(-c1ccc(Oc3ccccc3)cc1)nn2C1CCNCC1 [compound 1, 3-(4-phenoxyphenyl)-1-(piperidin-4-yl)-1H-pyrazolo[3,4-d]pyrimidin-4-amine hydrochloride, reference compound] |  |  | retained inhibition potency | 
3 | Nc1ncnc2c1c(-c1ccc(Oc3ccccc3)cc1)nn2C1CCN(CCCCOCCCCOCC(=O)Nc2cccc3c2C(=O)N(C2CCC(=O)NC2=O)C3=O)CC1 (stereo not shown) [Compound 106, 2-[4-[4-[4-[4-amino-3-(4-phenoxyphenyl)pyrazolo[3,4-d]pyrimidin-1-yl]-1-piperidyl]butoxy]butoxy]-N-[2-(2,6-dioxo-3-piperidyl)-1,3-dioxo-isoindolin-4-yl]acetamide] | No |  |  | nearly complete degradation of BTK
4 | Nc1ncnc2c1c(-c1ccc(Oc3ccccc3)cc1)nn2C1CCN(CCCCCCOCCOCC(=O)Nc2cccc3c2C(=O)N(C2CCC(=O)NC2=O)C3=O)CC1 (stereo not shown) [Compound 104, 2-(2-(6-(4-(4-amino-3-(4-phenoxyphenyl)-1H-pyrazolo[3,4-d]pyrimidin-1-yl)piperidin-1-yl)hexyloxy)ethoxy)-N-(2-(2,6-dioxopiperidin-3-yl)-1,3-dioxoisoindolin-4-yl)acetamide] | No |  |  | nearly complete degradation of BTK
